The record followed here is publication PMC12376908, “Synthesis and radiolabelled evaluation of novel pyrimidine derivatives as dual α-amylase inhibitors and GIT-targeted molecular imaging probe” (RSC Advances, 2025).

In this assay the target is T1, α-amylase.
T1 construct: gene AMY2; porcine pancreas is only a guess from usual DNSA assay practice
The experiment in a line: DNSA alpha-amylase inhibition assay, nonlinear regression. In kind it is biochemical. As to conditions: enzyme source, substrate, pH and temperature not stated; triplicate.

Structures are written as SMILES. Values after ≈ are worked out from the molar mass of the structure shown.

Usually IC50 stands for the concentration at which inhibition is half-maximal. Lower therefore signals greater potency in that assay. On to `CC(=O)C1=C(O)C=C2NC(=O)NC3=CC(O)=C(C(C)=O)C1(c1ccccc1)C23` (stereo not shown) [compound 1, 1,1′-(5,8-Dihydroxy-2-oxo-6a-phenyl-2,3,3a1,6a-tetrahydro-1H-perimidine-6,7-diyl)bis(ethan-1-one)], for which the concentration for half-maximal inhibition (IC50) stood at 34.60 ± 1.43 µg/mL (≈ 91.4 µM).
